US20250108029A1, “INHIBITORS OF THE INTERACTION BETWEEN THE ROCK AND PDK1 PROTEIN KINASES” (Université Paris Cite, priority 2021, published 2025)
pIC50: −log10 of the molar value. Read-outs that look alike come from different tables or passages of the source.

Experiments:
[1] = tested on: IRFs; assay: Interferon pathway (IRF) activity in reporter cells fed supernatants of R848-stimulated PBMCs; type: cell-based, human; conditions: for pIC50: Homo sapiens, PBMC, read-out: IC50 IFR; for secretion of interferons on PBMCs: preventively, 1 h before stimulation by TLR7/8
Excerpt: (§1) The supernatants were collected for cytokine detection.

[2] = tested on: IRF transcription factor; assay: IRF activation in THP1-Dual cells after cGAMP (luciferase assay); type: cell-based, human; conditions: according to a dose effect; stimulation of the STING interferon pathway by cGAMP, 24 h
Method: The THP1-Dual reporter cell line was cultured at 5×10^5/ml. […] The THP1-Dual cells were stimulated for 24 h with the STING pathway agonist, cGAMP. Luciferase assay (luminometry)
The THP1-Dual cells express the Lucia luciferase reporter gene under a promoter containing five IFN response elements. The THP1-Dual cells allow the IRF pathway to be studied by measuring Lucia luciferase activity. Lucia luciferase activity is determined by means of the QUANTI-Luc Gold assay (InvivoGen). The THP1-Dual cells are cultured in a 96-well plate (200 μL/well). After LPS or R848 treatment, for each well, 10 μL of culture medium are added to 50 μL of QUANTI-Luc GOLD solution and the light signal produced is measured by means of a luminometer.

[3] = tested on: peripheral blood mononuclear cells (PBMCs); assay: Interferon secretion by PBMCs stimulated with influenza virus (THP1-Dual reporter); type: cell-based, human; conditions: 20 μM, 1 h before stimulation by the influenza virus, 24 h
[4] = tested on: B lymphocytes; assay: B lymphocyte activation (CD69) by flow cytometry after TLR9 stimulation; type: cell-based, human; conditions: 20 μM, 1 h before TLR9 agonist CpG-A, 16 h
Method: The B lymphocytes were purified by negative selection with the “B Cell Isolation Kit” (Miltenyi).
The B lymphocytes were cultured at 1×10^6/ml. […] They were stimulated for 16 h (flow cytometry) with the TLR9 agonist CpG-A at […]. The cells were recovered for flow cytometry.
After washing, the cells were resuspended in PBS containing 2% of FCS and 2 mM of EDTA and then labeled with an anti-CD69 antibody (clone REA824) from Miltenyi Biotec, used at 1/100° for 30 min at 4° C. The cells were washed twice and then passed into flow cytometry. The data acquisition was carried out on the Canto II flow cytometer using Diva software (BD Biosciences, San Jose, CA). FlowJo software was used to analyze the data.

[5] = tested on: peripheral blood mononuclear cells (PBMCs); assay: Interferon secretion by PBMCs stimulated with HIV (THP1-Dual reporter); type: cell-based, human; conditions: 20 μM, 1 h before stimulation by the HIV virus, 24 h
Excerpt: as §1

[6] = tested on: monocytes; assay: TNFα production in monocytes treated with siPDK1 or siCTL and stimulated with R848; type: cell-based, human; conditions: 20 μM, 1 h before R848 1 μg/ml
[7] = tested on: monocytes; assay: Intracellular TNFα production in isolated monocytes by flow cytometry; type: cell-based, human
[8] = tested on: pyruvate kinase (PK); assay: Pyruvate kinase activity assay; type: biochemical
Method: Inhibitors (2 μL) are added to 193 μL of a mixture containing PEP, ADP, MgSO4, β-NADH and L-lactic dehydrogenase. After reading at 340 nm, 7 μL of pyruvate kinase are added to the mixture. The samples are read at 340 nm every 1 to 2 min for 20 min.

[9] = tested on: plasmacytoid dendritic cells (pDCs); type: cell-based, human
[10] = tested on: NF-κB transcription factor; assay: NF-κB activity in THP1-Dual reporter cells fed supernatants of R848-stimulated PBMCs; conditions: for pIC50: Homo sapiens, THP1-Dual, read-out: IC50 NF-κB; for secretion of inflammatory cytokines on PBMCs: preventively, 1 h before stimulation by TLR7/8
Method: The in vitro experiments were carried out using human peripheral blood mononuclear cells (PBMCs) isolated by density with centrifugation using a medium for separating white blood cells from peripheral blood ([sequence] Technologies). […] The peripheral blood mononuclear cells (PBMCs) were cultured in RPMI 1640 (Sigma) containing 10% inactivated fetal calf serum and 1 mM glutamine (Hyclone, Logan, UT).
The PBMCs were cultured at 2×10^6 cells/ml. The cells were then incubated with the compounds of the invention at the indicated concentrations for 1 h before stimulation. The PBMCs were then stimulated for 24 h with the TLR7/8 agonist Resiquimod (R848) at 5 μg/ml. The supernatants were collected for cytokine detection.
The activity of the NF-κB transcription Factor and the induction of the interferon (IFN) pathway via interferon regulatory factors (IRFs) were measured using the THP1-Dual reporter cell line from InvivoGen. The PBMC culture supernatants were added to the THP1-Dual cultures at a rate of 0.4×10^6 cells/ml for 24 h. The activity of the NF-κB transcription factor was measured with QUANTI-Blue, a SEAP detection agent following the supplier's recommendations. The activity of the IRFs was measured with QUANTI-Luc, a luciferase detection reagent following the supplier's recommendations.

[11] = tested on: NF-κB transcription factor; assay: NF-κB activation in THP1-Dual cells (SEAP assay); type: cell-based, human; conditions: according to a dose effect
Method: The THP1-Dual reporter cell line was cultured at 5×10^5/ml.
The THP1-Dual cells express the secreted embryonic alkaline phosphatase (SEAP) reporter gene under a promoter containing five copies of the NF-κB consensus transcriptional response element. The THP1-Dual cells allow the NF-κB pathway to be studied by monitoring the SEAP activity. The SEAP alkaline phosphatase activity is determined by means of the QUANTI-Blue colorimetric enzyme assay (InvivoGen). The THP1-Dual cells are cultured in a 96-well plate (200 μL/well). After LPS or R848 treatment, for each well, 20 μL of culture medium are added to 180 μL of the QUANTI-Blue solution and incubated at 37° C. for 2 h. Absorbance (measurement at 655 nm with a spectrophotometer (Bio-Rad Model 680 microplate reader) is proportional to SEAP activity.

[12] = tested on: peripheral blood mononuclear cells (PBMCs); assay: LegendPlex assay of cytokines in supernatants of stimulated PBMCs; conditions: for secretion of TNFα, IL-1β, IL-6, IL-18, IL-23, IFNγ and MCP1 on PBMCs: stimulation by TLR4 (LPS 100 ng/ml, 24 h); for secretion of TNFα, IL-1β, IL-6, IL-10, IL-12 p70, IL-18, IL-23, IL-33, IFNα2, IFNγ and MCP1 on PBMCs: stimulation by TLR7/8 (R848 5 μg/ml, 24 h)
Method: The in vitro experiments were carried out using human peripheral blood mononuclear cells (PBMCs) isolated by density with centrifugation using a medium for separating white blood cells from peripheral blood ([sequence] Technologies). The blood from the healthy donors was obtained at the “Etablissement Frangais du Sang” (French Blood Establishment) (convention #07/CABANEL/106; Paris, France). […] The peripheral blood mononuclear cells (PBMCs) were cultured in RPMI 1640 (Sigma) containing 10% inactivated fetal calf serum and 1 mM glutamine (Hyclone, Logan, UT).
The PBMCs were cultured at 2×10^6 cells/ml. The cells were then incubated with the compounds of formula (V) and (VI) at the indicated concentrations for 1 hour before stimulation. The PBMCs were then stimulated for 24 h with the TLR7/8 agonist Resiquimod—R848 at 5 μg/ml and the TLR4 agonist Lipopolysaccharide—LPS at 100 ng/ml. The supernatants were collected for cytokine detection.
An assay of the cytokines in the supernatants of the cell cultures was carried out using the “LegendPlex Antivirus Human Panel” or “LegendPlex Human Inflammation Panel” (Biolegend, San Diego, USA) according to the manufacturer's instructions.

[13] = tested on: THP1 human monocytic cell line; assay: RT-qPCR of pro-inflammatory gene transcription in THP1-Dual monocytes; type: cell-based; conditions: dose effect; for concentration from which transcription of the genes coding for TNFα and IL-1β is reduced: induced by LPS, 1 hour; for concentration from which transcription of the genes coding for TNFα, IL-6, MCP1 and IL-1β is reduced: induced by R848 5 μg/ml, 16 h
Method: The THP1-Dual cell lines were cultured at 1×10^6 cells/ml.
The THP1-Dual cells (InvivoGen) were stimulated for 16 h with the TLR7/8 agonist (R848) at 5 μg/ml or for 1 hour with the TLR4 agonist (LPS) at 100 ng·ml, respectively. The cells were washed in PBS and lysed to prepare the mRNAs for an RT-qPCR analysis.
The total RNAs are extracted from the cells with the E.Z.N.A. kit. Total RNA Kit 1 (Omega Bio-tek) according to the supplier's instructions. The RNA concentration is measured by means of a spectrophotometer (Nanodrop ND-1000). The total RNA is reverse-transcribed into cDNA by means of the PrimeScript RT Master Mix kit (Takara RR036A). The cDNA synthesis is carried out according to the following protocol: 300-500 ng of RNA in 8 μL of water free of RNase, supplemented with 2 μL of the reaction buffer (containing the PrimeScript reverse transcriptase, RNase inhibitors, oligo(dT) primers, random 6mers and the mix of dNTPs). The enzymatic reverse transcription reaction is carried out at 37° C. for 15 min. The enzyme is inactivated by incubating the sample at 85° C. for 15 sec.
The quantitative real-time PCR is carried out according to the following conditions: cDNA diluted to 1/10th is added to the following mixture: 3.8 μL of H2O, […] of sense and antisense primers (10 μM) (Table 3), 5 μL of Absolute qPCR SYBR Green Mix containing Thermo-Start DNA Polymerase, MgCl2, SYBR Green and dNTPs (Eurogentec). The assays are carried out in triplicate in a 384-well plate (Thermo Scientific). DNA amplification by quantitative PCR is carried out in the CFX384 system (Bio-Rad) with the following program: 3 min at 95° C./5 sec at 95° C. and 30 sec at 60° C. repeated 40 cycles/2 min at 72° C. and 30 sec at 95° C. followed by a dissociation step which makes it possible to verify the specificity of the amplification product. The DNA amplification data are analyzed with Bio-Rad CFX Manager software.

[14] = PBMCs incubated with compound 1 h before R848 5 μg/ml for 24 h, supernatants on reporter cells, QUANTI-Luc
[15] = Condition A: 20 μM, 1 h before stimulation of TLR7/8 (R848 5 μg/ml)
[16] = Condition B: 20 μM, 1 h before stimulation of TLR4 (LPS 100 ng/ml)
[17] = Condition C: 20 μM, 1 h before stimulation of TLR2 (LTA 1 μg/ml)
[18] = Condition B: 20 μM, 1 h before stimulation by the influenza virus
[19] = stimulation of TLR4 by LPS, 24 h
[20] = stimulation of TLR7/8 by R848, 24 h

COC(=O)c1c(NC(=O)C(F)(F)F)c(C#N)nn1-c1cccc(OC)c1 [Compound of formula (IX), methyl 3-cyano-1-(3-methoxyphenyl)-4-(2,2,2-trifluoroacetamido)-1H-pyrazole-5-carboxylate]
pIC50 [1, 14]: 6.40 | secretion of interferons on PBMCs [1]: capable of blocking | activation of the IRF transcription factor in THP1-Dual cells [2]: inhibit | secretion of interferons by PBMCs [3]: inhibit

COc1cccc(-n2nc3c(N)cc(-c4ccccc4)nc3c2C(=O)NN)c1 [Compound of formula (VIII), 7-amino-2-(3-methoxyphenyl)-5-phenyl-2H-pyrazolo[4,3-b]pyridine-3-carbohydrazide]
pIC50 [1, 14]: 4.64 | secretion of interferons on PBMCs [1]: capable of blocking | activation of the IRF transcription factor in THP1-Dual cells [2]: inhibit | activation of B lymphocytes (CD69 membrane activation marker) [4]: capable of blocking | secretion of interferons by PBMCs [3]: inhibit | secretion of interferons by PBMCs [5]: inhibit

COc1cccc(NN=C(C#N)C#N)c1 [Compound of formula (V), 2-[(3-methoxyphenyl)hydrazinylidene]propanedinitrile]
production of TNFα by monocytes treated with control siRNAs (siCTL) [6]: inhibit | production of TNFα by monocytes treated with siRNAs targeting PDK1 (siPDK1) [6]: fail to inhibit | production of TNFα on monocytes [7, 15]: inhibit | production of TNFα on monocytes [7, 16]: inhibit | production of TNFα on monocytes [7, 17]: inhibit | pIC50 [1]: 5.52 | secretion of interferons on PBMCs [1]: capable of blocking | activation of the IRF transcription factor in THP1-Dual cells [2]: inhibit | enzymatic activity of pyruvate kinase (PK) [8]: no impact | production of TNFα on plasmacytoid dendritic cells ([9]; Condition A: 20 μM, 1 h before stimulation of TLR7 (R848 5 μg/ml)): inhibit | production of TNFα on plasmacytoid dendritic cells [9, 18]: inhibit | production of TNFα on plasmacytoid dendritic cells ([9]; Condition C: 20 μM, 1 h before stimulation of TLR9 (CpG-A)): inhibit | pIC50 [10]: 5.42 | secretion of inflammatory cytokines on PBMCs [10]: capable of blocking | activation of the NF-κB transcription factor in THP1-Dual cells [11, 19]: inhibit | activation of the NF-κB transcription factor in THP1-Dual cells [11, 20]: inhibit | secretion of TNFα, IL-1β, IL-6, IL-18, IL-23, IFNγ and MCP1 on PBMCs [12]: capable of blocking | secretion of TNFα, IL-1β, IL-6, IL-10, IL-12 p70, IL-18, IL-23, IL-33, IFNα2, IFNγ and MCP1 on PBMCs [12]: capable of blocking | activation of B lymphocytes (CD69 membrane activation marker) [4]: capable of blocking | secretion of interferons by PBMCs [3]: inhibit | secretion of interferons by PBMCs [5]: inhibit | concentration from which transcription of the genes coding for TNFα and IL-1β is reduced [13]: ≥ 5 µM | concentration from which transcription of the genes coding for TNFα, IL-6, MCP1 and IL-1β is reduced [13]: ≥ 5 µM

COc1ccc(NN=C(C#N)C#N)cc1 [Compound of formula (VI), 2-[(4-methoxyphenyl)hydrazinylidene]propanedinitrile]
production of TNFα by monocytes treated with control siRNAs (siCTL) [6]: inhibit | production of TNFα by monocytes treated with siRNAs targeting PDK1 (siPDK1) [6]: fail to inhibit | production of TNFα on monocytes [7, 15]: inhibit | production of TNFα on monocytes [7, 16]: inhibit | production of TNFα on monocytes [7, 17]: inhibit | pIC50 [1, 14]: 5.52 | secretion of interferons on PBMCs [1]: capable of blocking | activation of the IRF transcription factor in THP1-Dual cells [2]: inhibit | enzymatic activity of pyruvate kinase (PK) [8]: no impact | production of TNFα on plasmacytoid dendritic cells [9]: inhibit | production of TNFα on plasmacytoid dendritic cells [9, 18]: inhibit | pIC50 [10]: 5.30 | secretion of inflammatory cytokines on PBMCs [10]: capable of blocking | activation of the NF-κB transcription factor in THP1-Dual cells [11, 19]: inhibit | activation of the NF-κB transcription factor in THP1-Dual cells [11, 20]: inhibit | secretion of TNFα, IL-1β, IL-6, IL-18, IL-23, IFNγ and MCP1 on PBMCs [12]: capable of blocking | secretion of TNFα, IL-1β, IL-6, IL-10, IL-12 p70, IL-18, IL-23, IL-33, IFNα2, IFNγ and MCP1 on PBMCs [12]: capable of blocking | activation of B lymphocytes (CD69 membrane activation marker) [4]: capable of blocking | secretion of interferons by PBMCs [3]: inhibit | secretion of interferons by PBMCs [5]: inhibit | concentration from which transcription of the genes coding for TNFα and IL-1β is reduced [13]: ≥ 1 µM | concentration from which transcription of the genes coding for TNFα, IL-6, MCP1 and IL-1β is reduced [13]: ≥ 2 µM

COc1cccc(-n2nc3c(N)cc(-c4ccccc4)nc3c2C(=O)NCc2ccccc2)c1 [Compound of formula (VII), 7-amino-N-benzyl-2-(3-methoxyphenyl)-5-phenyl-2H-pyrazolo[4,3-b]pyridine-3-carboxamide]
pIC50 [1, 14]: 4.64 | secretion of interferons on PBMCs [1]: capable of blocking | activation of B lymphocytes (CD69 membrane activation marker) [4]: capable of blocking
